From US12501868B2, “Haploid induction compounds and methods for use thereof” (WIMI BIOTECHNOLOGY (HAINAN) CO., LTD., priority 2020, dated 2025)
“And” between values parts separate entries of the source, which are not always exact repeats. Equal values may be shown once. Read-outs that look alike come from different tables or passages of the source.

Key:
maize pollen = test: Relative ROS level in maize pollen (ROS detection kit, fluorometry); type: cell-based
Experimental: The red channel or bright channel of the photo was analyzed, and the ROS level was represented by the light intensity of the wavelength with the largest proportion. The relative ROS level in a reproductive tissue refers to a ratio of the ROS level of the reproductive tissue to the ROS level in the control group (40% sucrose).
Taking maize pollen as an example, the experiment of a series of compounds that may affect the ROS level in the maize pollen was tested.
All reagents are dissolved in 40% sucrose. The relative ROS levels were from 6-7 measurements.

[1] = system: sperm cells of maize pollen; test: DNA fragmentation in sperm cells of treated maize pollen (single sperm amplified sequencing); details: treated pollen vs 40% sucrose control
Description: DNA fragmentation (which is one of the characteristics of haploid) in the treated pollen is detected.
Release sperm cells on the slide and separate a single sperm for amplified sequencing (Sigma WGA4 kit).

[2] = bright channel, ratio to 40% sucrose control, final concentration as listed per compound in Table 5, 6-7 measurements
[3] = red channel, ratio to 40% sucrose control, final concentration as listed per compound in Table 5, 6-7 measurements

Row | Compound | Relative ROS Level Bright (maize pollen; [2]) | Relative ROS Level Red (maize pollen; [3]) | other results
1 | O=[N+]([O-])[O-].O=[N+]([O-])[O-].[Ca+2] [Compound 2, calcium nitrate] | – | – | Relative ROS Level Bright (maize pollen; bright channel, final concentration 1.83 mM, ratio to 40% sucrose control): 2.57 ± 0.15; Relative ROS Level Bright (maize pollen; bright channel, final concentration 18.3 mM, ratio to 40% sucrose control): 3.08 ± 0.12; Relative ROS Level Red (maize pollen; red channel, final concentration 1.83 mM, ratio to 40% sucrose control): 2.55 ± 0.21; Relative ROS Level Red (maize pollen; red channel, final concentration 18.3 mM, ratio to 40% sucrose control): 2.97 ± 0.12
2 | PI(4)P_18:1 [Compound 18] | 0.82 ± 0.10 | 0.84 ± 0.08 | –
3 | Cn1cc[nH]c1=S [Compound 12, Methimazole] | – | – | Proportion of fragmentation compared with control group [1]: higher proportion of fragmentation
4 | O=C(O)CC(O)(CC(=O)O)C(=O)O [Compound 21, Citric acid] | 0.74 ± 0.06 | 0.78 ± 0.02 | –
5 | PI(3,5)PP_18:1 [Compound 17] | 0.82 ± 0.11 | 0.88 ± 0.08 | –
6 | PA_18:1 [Compound 25] | 0.33 ± 0.02 | 0.34 ± 0.01 | –
7 | PG_18:1 [Compound 26] | 0.32 ± 0.00 | 0.33 ± 0.00 | –
8 | 1,2-Octadecyl Phosphatidylinositol Di-4,5-Phosphate [Compound 5] | 1.06 ± 0.06 | 1.05 ± 0.07 | –
9 | inositol triphosphate [Compound 4] | 1.37 ± 0.00 | 1.39 ± 0.01 | –
10 | PI(3)P_18:1 [Compound 19] | 0.62 ± 0.06 | 0.63 ± 0.05 | –
11 | PI_18:1 [Compound 24] | 0.81 ± 0.05 | 0.88 ± 0.06 | –
12 | CC(=O)OC(C)(C)/C=C/C(=O)[C@](C)(O)[C@H]1[C@H](O)C[C@@]2(C)[C@@H]3CC=C4[C@@H](C=C(O)C(=O)C4(C)C)[C@]3(C)C(=O)C[C@]12C [Compound 7, Cucurbitacin E] | 1.37 ± 0.02 | 1.31 ± 0.08 | –
13 | Nc1ncnc2c1ncn2[C@@H]1O[C@@H]2COP(=O)(O)O[C@H]2[C@H]1O [Compound 3, cyclic Adenosine Monophosphate] | 2.04 ± 0.15 | 1.97 ± 0.10 | –
14 | C/C1=C\[C@H](C)C[C@H](C)OC(=O)C[C@H](c2ccc(O)cc2)NC(=O)[C@@H](Cc2c(Br)[nH]c3ccccc23)N(C)C(=O)[C@H](C)NC(=O)[C@@H](C)C1 [Compound 6, Jasplakinolide] | 1.79 ± 0.16 | 1.77 ± 0.16 | –
15 | S=C([S-])OC1CC2CC1C1CCCC21.[K+] (stereo not shown) [Compound 16] | 1.12 ± 0.10 | 1.14 ± 0.10 | –
16 | Lecithin PC_18:1 [Compound 15] | 1.21 ± 0.18 | 1.19 ± 0.17 | –
17 | choline phosphate [Compound 14] | – | – | Relative ROS Level Bright (maize pollen): 1.27 ± 0.11; Relative ROS Level Red (maize pollen): 1.28 ± 0.08
18 | C/C1=C/C(=O)O[C@@H]2C[C@@H](CC[C@H](C)/C=C\CC1)O[C@@](O)([C@@H]1CSC(=O)N1)C2 [Compound 8, Latrunculin B] | 1.64 ± 0.10 | 1.66 ± 0.06 | –
19 | O=P(O)(O)O[C@@H]1[C@H](O)[C@H](O)[C@@H](OP(=O)(O)O)[C@H](OP(=O)(O)O)[C@H]1O [Compound 20, IP3(1,4,5)] | 0.60 ± 0.02 | 0.67 ± 0.03 | –
20 | c1ccc2c(c1)[I+]c1ccccc1-2 [Compound 11, Diphenyl iodide chloride] | 1.53 ± 0.14 | 1.55 ± 0.13 | –
21 | [Ca+2].[Cl-].[Cl-] [Compound 1, calcium chloride] | – | – | Relative ROS Level Bright (maize pollen): 4.03 ± 0.24 and 3.11 ± 0.23; Relative ROS Level Red (maize pollen): 3.81 ± 0.21 and 3.01 ± 0.23; effect on relative ROS level (in words) (maize pollen): most obvious effect on the increase of ROS level
22 | Cc1ccc2c(c1)C(=O)C1(O)CCN(c3ccccc3)C1=N2 (stereo not shown) [Compound 10, Blebbistatin] | 1.37 ± 0.14 | 1.35 ± 0.17 | –
23 | PS_18:1 [Compound 22] | 0.65 ± 0.02 | 0.63 ± 0.05 | –
24 | C/C1=C/C(=O)O[C@@H]2C[C@@H](CC[C@H](C)/C=C\C=C\CC1)O[C@@](O)([C@@H]1CSC(=O)N1)C2 [Compound 9, Latrunculin A] | 1.37 ± 0.00 | 1.35 ± 0.05 | –
25 | PE_18:1 [Compound 23] | 0.92 ± 0.08 | 0.98 ± 0.04 | –
26 | O=C(NCCN1CCC(n2c(=O)[nH]c3ccccc32)CC1)c1cc2cc(F)ccc2[nH]1 [Compound 13] | 1.35 ± 0.06 | 1.34 ± 0.07 | –
27 | OO [Hydrogen Peroxide, Hydrogen peroxide] | – | – | Proportion of fragmentation compared with control group [1]: higher proportion of fragmentation
